{"source": "paper PMC6941952", "about": "“A homogeneous bioluminescent immunoassay to probe cellular signaling pathway regulation” (Communications Biology, 2020)", "key": {"phospho-IκBα (Ser32)": {"system": "phospho-IκBα (Ser32)", "test": "NanoBiT cell-based immunoassay, phosphorylated IκBα in MCF-7 cells", "parameters": "species or system human", "details": "for P-IkB Average: background subtracted", "method": "(§1) Prior to NanoBiT Cell-Based Immunoassay, 50,000 cells were seeded in 160 µl of complete growth media per well of a 96-well plate and incubated overnight. The cells were checked under microscope and it was determined that 50,000 cells per well in 96-well plate is under 90% confluency for all cells tested. If necessary, the cell culture media were replaced with serum-free media after the cells were stably adherent on the plate and incubated overnight. To treat cells with activators or inhibitors, medium was changed to 30 µl of medium containing inhibitors. If activation of a specific pathway is needed, the cells were stimulated with 10 µl of medium containing activators. To lyse the cells, 10 µl of lysis buffer containing 0.1% digitonin diluted in 1X immunoassay buffer with protease and phosphatase inhibitors was added and the plates were mixed vigorously for 20 min. Then, 50 µl of an antibody mix containing two primary antibodies against the target protein and NanoBiT detecting antibodies (0.3 µl each per well), diluted in 1X immunoassay buffer was added to the lysates. The plates were incubated at 23 °C for 90 min, followed by the addition of 25 µl of Nano-Glo® reagent consisting of Nano-Glo® Luciferase Assay Substrate mixed with 1X immunoassay buffer. Luminescence was measured using a plate-reading luminometer.\nIn all, 50,000 MCF-7 cells were seeded in 160 µl complete growth medium per well of a 96-well plate and incubated overnight. Half of the cells were treated with 50 ng per ml TNFα and half with vehicle. Cells were lysed as described above and a mixture of NanoBiT secondary antibodies with primary antibodies at the matrix concentrations described in Fig. 2a were added. After 90 min incubation, the Nano-Glo® reagent was added to the reactions as described above and luminescence was measured using a plate-reading luminometer.\n(§2) Single dose or dose response inhibitor treatments were performed prior to activation of the pathways as follows. For IκBα, the cells were treated in 30 µl medium with IKK16 or MG132 for 60 min before the addition of 10 µl of DMEM containing appropriate concentration of TNFα. To measure phosphorylation of AKT or STAT3, the corresponding NanoBiT immunoassays were developed with MCF-7 or A431 cells, respectively, according the same scheme used to develop the IκBα assay using the primary antibodies for AKT and STAT3 described in the reagents section. For the AKT assay, MCF-7 cells were incubated overnight in phenol-red free DMEM medium (Gibco #21063-029) without serum. Treatment with LY294002 was performed in 30 µl medium and cells were incubated for 60 min before the addition of 1 µM Insulin. To measure STAT3 phosphorylation, A431 cells were incubated overnight in DMEM medium without serum. […] After addition of the stimulators, the cells were incubated for additional times as follows. IκBα phosphorylation and degradation analyses required both time courses and single time points as described in figures. […] The NanoBiT immunoassay protocol was followed as described above.\n(§3) All 96-well assay plates were read using a GloMax® 96 Microplate Luminometer from Promega. The instrument was set to 0.5 s integration time. In order to obtain net change of signal, the reagent background values (signal from the well containing all reagent except primary antibodies) were subtracted from the sample values. To plot and analyze the data, Microsoft Excel and GraphPad Prism® Software were used. IC50 values were determined by using a nonlinear regression fit to a sigmoidal dose response (variable slope)."}, "total IκBα": {"system": "total IκBα", "test": "NanoBiT cell-based immunoassay, total IκBα in MCF-7 cells", "parameters": "species or system human", "details": "for Total IkB Average: background subtracted", "method": "as §1, with “The cells were checked under microscope and it was determined that 50,000 cells per well in 96-well plate is under 90% confluency for all cells tested.” left out\nas §2, with “For the AKT assay, MCF-7 cells were incubated overnight in phenol-red free DMEM medium (Gibco #21063-029) without serum.” left out\nas §3"}}, "note": "Values joined by “and” are separate entries in the source; they are usually repeats but may differ in a detail not shown here. Equal values may be shown once. Where a SMILES comes first, the peptide text is derived from it. The star is where a group is joined. Cbz = O=C(OCc1ccccc1)*"}
{"smiles": "CC(C)C[C@@H](C=O)NC(=O)[C@H](CC(C)C)NC(=O)[C@H](CC(C)C)NC(=O)OCc1ccccc1", "note": "[MG132] (Cbz-Leu-Leu-Leu-aldehyde)", "values": [{"measurement": "P-IkB Raw data", "setting": "phospho-IκBα (Ser32); MG132, TNF 0 min", "result": "22120 and 22340 and 21000 and 22420"}, {"measurement": "P-IkB Subtract reagent background", "setting": "phospho-IκBα (Ser32); MG132, TNF 0 min", "result": "5850 and 5550 and 5770 and 4430"}, {"measurement": "P-IkB Average", "setting": "phospho-IκBα (Ser32); MG132, TNF 0 min", "result": 5400}, {"measurement": "P-IkB Raw data", "setting": "phospho-IκBα (Ser32); MG132, TNF 2 min", "result": "23520 and 22950 and 21920 and 24690"}, {"measurement": "P-IkB Subtract reagent background", "setting": "phospho-IκBα (Ser32); MG132, TNF 2 min", "result": "8120 and 6950 and 6380 and 5350"}, {"measurement": "P-IkB Average", "setting": "phospho-IκBα (Ser32); MG132, TNF 2 min", "result": 6700}, {"measurement": "P-IkB Raw data", "setting": "phospho-IκBα (Ser32); MG132, TNF 4 min", "result": "23590 and 23010 and 22240 and 23600"}, {"measurement": "P-IkB Subtract reagent background", "setting": "phospho-IκBα (Ser32); MG132, TNF 4 min", "result": "7030 and 7020 and 6440 and 5670"}, {"measurement": "P-IkB Average", "setting": "phospho-IκBα (Ser32); MG132, TNF 4 min", "result": 6540}, {"measurement": "P-IkB Raw data", "setting": "phospho-IκBα (Ser32); MG132, TNF 6 min", "result": "26150 and 25190 and 24160 and 26140"}, {"measurement": "P-IkB Raw data", "setting": "phospho-IκBα (Ser32); MG132, TNF 8 min", "result": "31970 and 30150 and 26560 and 32480"}, {"measurement": "P-IkB Subtract reagent background", "setting": "phospho-IκBα (Ser32); MG132, TNF 8 min", "result": "15910 and 15400 and 13580 and 9990"}, {"measurement": "P-IkB Average", "setting": "phospho-IκBα (Ser32); MG132, TNF 8 min", "result": 13720}, {"measurement": "P-IkB Raw data", "setting": "phospho-IκBα (Ser32); MG132, TNF 10 min", "result": "38930 and 36060 and 31570 and 39590"}, {"measurement": "P-IkB Subtract reagent background", "setting": "phospho-IκBα (Ser32); MG132, TNF 10 min", "result": "23020 and 22360 and 19490 and 15000"}, {"measurement": "P-IkB Average", "setting": "phospho-IκBα (Ser32); MG132, TNF 10 min", "result": 19968}, {"measurement": "P-IkB Raw data", "setting": "phospho-IκBα (Ser32); MG132, TNF 12 min", "result": "47120 and 43420 and 37410 and 48430"}, {"measurement": "P-IkB Subtract reagent background", "setting": "phospho-IκBα (Ser32); MG132, TNF 12 min", "result": "31860 and 30550 and 26850 and 20840"}, {"measurement": "P-IkB Average", "setting": "phospho-IκBα (Ser32); MG132, TNF 12 min", "result": 27525}, {"measurement": "P-IkB Raw data", "setting": "phospho-IκBα (Ser32); MG132, TNF 15 min", "result": "56120 and 51230 and 43530 and 56550"}, {"measurement": "P-IkB Subtract reagent background", "setting": "phospho-IκBα (Ser32); MG132, TNF 15 min", "result": "39980 and 39550 and 34660 and 26960"}, {"measurement": "P-IkB Average", "setting": "phospho-IκBα (Ser32); MG132, TNF 15 min", "result": 35288}, {"measurement": "P-IkB Raw data", "setting": "phospho-IκBα (Ser32); MG132, TNF 30 min", "result": "63690 and 60630 and 51570 and 63760"}, {"measurement": "P-IkB Subtract reagent background", "setting": "phospho-IκBα (Ser32); MG132, TNF 30 min", "result": "47190 and 47120 and 44060 and 35000"}, {"measurement": "P-IkB Average", "setting": "phospho-IκBα (Ser32); MG132, TNF 30 min", "result": 43343}, {"measurement": "TNFα-induced degradation of IκBα", "setting": "total IκBα; MCF-7 cells, 20 µM 1 h pretreatment, TNFα 50 ng per ml", "result": "inhibited"}, {"measurement": "Total IkB Raw data", "setting": "total IκBα; MG132, TNF 0 min", "result": "86990 and 84090 and 85790 and 87340"}, {"measurement": "Total IkB Subtract reagent background", "setting": "total IκBα; MG132, TNF 0 min", "result": "70533 and 70183 and 67283 and 68983"}, {"measurement": "Total IkB Average", "setting": "total IκBα; MG132, TNF 0 min", "result": 69245}, {"measurement": "Total IkB Raw data", "setting": "total IκBα; MG132, TNF 2 min", "result": "89610 and 87100 and 86710 and 88460"}, {"measurement": "Total IkB Subtract reagent background", "setting": "total IκBα; MG132, TNF 2 min", "result": "71653 and 72803 and 70293 and 69903"}, {"measurement": "Total IkB Average", "setting": "total IκBα; MG132, TNF 2 min", "result": 71163}, {"measurement": "Total IkB Raw data", "setting": "total IκBα; MG132, TNF 4 min", "result": "87350 and 84610 and 87580 and 85650"}, {"measurement": "Total IkB Subtract reagent background", "setting": "total IκBα; MG132, TNF 4 min", "result": "68843 and 70543 and 67803 and 70773"}, {"measurement": "Total IkB Average", "setting": "total IκBα; MG132, TNF 4 min", "result": 69490}, {"measurement": "Total IkB Raw data", "setting": "total IκBα; MG132, TNF 6 min", "result": "86900 and 82270 and 84580 and 89030"}, {"measurement": "Total IkB Subtract reagent background", "setting": "total IκBα; MG132, TNF 6 min", "result": "72223 and 70093 and 65463 and 67773"}, {"measurement": "Total IkB Average", "setting": "total IκBα; MG132, TNF 6 min", "result": 68888}, {"measurement": "Total IkB Raw data", "setting": "total IκBα; MG132, TNF 8 min", "result": "86550 and 79990 and 82380 and 88200"}, {"measurement": "Total IkB Subtract reagent background", "setting": "total IκBα; MG132, TNF 8 min", "result": "71393 and 69743 and 63183 and 65573"}, {"measurement": "Total IkB Average", "setting": "total IκBα; MG132, TNF 8 min", "result": 67473}, {"measurement": "Total IkB Raw data", "setting": "total IκBα; MG132, TNF 10 min", "result": "86190 and 79560 and 78070 and 90680"}, {"measurement": "Total IkB Subtract reagent background", "setting": "total IκBα; MG132, TNF 10 min", "result": "73873 and 69383 and 62753 and 61263"}, {"measurement": "Total IkB Average", "setting": "total IκBα; MG132, TNF 10 min", "result": 66818}, {"measurement": "Total IkB Raw data", "setting": "total IκBα; MG132, TNF 12 min", "result": "85440 and 78280 and 77940 and 85890"}, {"measurement": "Total IkB Subtract reagent background", "setting": "total IκBα; MG132, TNF 12 min", "result": "69083 and 68633 and 61473 and 61133"}, {"measurement": "Total IkB Average", "setting": "total IκBα; MG132, TNF 12 min", "result": 65080}, {"measurement": "Total IkB Raw data", "setting": "total IκBα; MG132, TNF 15 min", "result": "85380 and 79290 and 77150 and 87460"}, {"measurement": "Total IkB Subtract reagent background", "setting": "total IκBα; MG132, TNF 15 min", "result": "70653 and 68573 and 62483 and 60343"}, {"measurement": "Total IkB Average", "setting": "total IκBα; MG132, TNF 15 min", "result": 65513}, {"measurement": "Total IkB Raw data", "setting": "total IκBα; MG132, TNF 30 min", "result": "74090 and 69470 and 69970 and 74150"}, {"measurement": "Total IkB Subtract reagent background", "setting": "total IκBα; MG132, TNF 30 min", "result": "57343 and 57283 and 52663 and 53163"}, {"measurement": "Total IkB Average", "setting": "total IκBα; MG132, TNF 30 min", "result": 55113}]}
